Assay [1] relates to osteoprogenitor cells cloned from bone marrow stroma. Particulars: Cui et al. 1996; cited from earlier work.
Assay [2] relates to rabbits. Particulars: Wang et al. 1995; cited from earlier work.
Assay [3] concerns ovariectomized Sprague-Dawley rats. The experiment in a line: Acute OVX (prevention model) oral dosing. It counts as in vivo, rat. The procedure:
Lead compounds can also be tested in acute ovariectomized animals (prevention model) using an in vivo dosing assay. Such assays may also include an estrogen-treated group as a control. An exemplary subcutaneous dosing assay is performed as follows:
In a typical study, 80 three-month-old female Sprague-Dawley rats are weight-matched and divided into eight groups, with ten animals in each group. This includes a baseline control group of animals sacrificed at the initiation of the study; three control groups (sham ovariectomized (sham OVX)+vehicle only; ovariectomized (OVX)+vehicle only; PBS-treated OVX); and a control OVX group that is administered a compound known to promote bone growth. Three dosage levels of the compound to be tested are administered to the remaining three groups of OVX animals.
Since ovariectomy (OVX) induces hyperphagia, all OVX animals are pair-fed with sham OVX animals throughout the 35 day study. Briefly, test compound, positive control compound, PBS, or vehicle alone is administered orally or subcutaneously once per day for 35 days. Alternatively, test compound can be formulated in implantable pellets that are implanted for 35 days, or may be administered orally, such as by gastric gavage. All animals, including sham OVX/vehicle and OVX/vehicle groups, are injected intraperitoneally with calcein nine days and two days before sacrifice (two injections of calcein administered each designated day, to ensure proper labeling of newly formed bone). Weekly body weights are determined. At the end of the 35-day cycle, the animals' blood and tissues are processed as described above.
(§1) Lovastatin and simvastatin were analyzed in vivo using an acute OVX (prevention model) and/or chronic (treatment model) OVX model system, as described above under “Additional In Vivo Assays”.
Lovastatin was examined in an acute OVX study. Briefly, 59-0326 was orally administered (35, 7, or 1.4 mg/kg/day; once per day for 35 days) immediately following ovariectomy. At the end of the study, the animals' blood and tissues samples were processed, and the following data were obtained.
Similarly, lovastatin was orally administered (0.1, 1, 5, 10, 20 or 40 mg/kg/day; once per day for 35 days) immediately following ovariectomy. Two individuals histomorphometrically analyzed samples removed from animals that received the 10 mg/kg/day dose. These analyses indicated an increase in trabecular bone volume of 38% (not significant) or 90% (p<0.02) in the proximal tibia. The bone formation rate in the proximal tibia was determined to have increased 74% (p=0.004) in animals that received a 10 mg/kg/day dose or 37% (p<0.008) in animals that received a 1 mg/kg/day dose. In samples from animals that received the 1 mg/kg/day dose, mineral apposition rate in the proximal tibia was increased 22%.

For assay [4], the system named is chickens. As to conditions: Cui et al. 1996; cited from earlier work.
Assay [5] has as its system serum response element (SRE)-luciferase reporter gene / CRE-luciferase reporter gene. The experiment in a line: negative control OBSRE (SRE-luciferase) and/or glucagon (CRE-luciferase) assays. It counts as cell-based, murine. The source says: In the negative control OBSRE assay, a murine osteoblast cell line, such as CCC-4 expressing a serum response element (SRE)-luciferase reporter gene is used (see WO96/07733). In the negative control glucagon assay, a glucagon receptor-positive BHK cell expressing a CRE-luciferase reporter gene is used (see U.S. Pat. No. 5,698,672).

Assay [6] has as its system ovariectomized rats. The experiment in a line: Chronic OVX (treatment model) oral dosing. The class given is in vivo, rat. Particulars: once per day for 10 weeks, from 6 weeks post-ovariectomy, not significant. As for the experimental part:
Lead compounds may also be tested in chronic OVX animals (treatment model). An exemplary protocol for treatment of established bone loss in ovariectomized animals that can be used to assess efficacy of anabolic agents may be performed as follows. Briefly, 80 to 100 six month old female, Sprague-Dawley rats are subjected to sham surgery (sham OVX) or ovariectomy (OVX) at time 0, and 10 rats are sacrificed to serve as baseline controls. Body weights are recorded weekly during the experiment. After approximately 6 weeks (42 days) or more of bone depletion, 10 sham OVX and 10 OVX rats are randomly selected for sacrifice as depletion period controls. Of the remaining animals, 10 sham OVX and 10 OVX rats are used as placebo-treated controls. The remaining OVX animals are treated with 3 to 5 doses of test drug for a period of 5 weeks (35 days). As a positive control, a group of OVX rats can be treated with an agent such as PTH, a known anabolic agent in this model (Kimmel, et al., Endocrinology (1993) 132:1577-84). […]
as §1
Simvastatin was also examined in a chronic OVX study. […] At the 50 mg/kg/day dose, an 86% (not significant) increase in the bone formation rate in the proximal tibia was measured.

Setting [7] is: 7 mg/kg/day oral, once per day for 35 days.

Each structure is given as a SMILES string. Values joined by “and” are separate entries in the source; they are usually repeats but may differ in a detail not shown here. Identical values can stand only once.

In the case of `CC[C@H](C)C(=O)O[C@H]1C[C@@H](C)C=C2C=C[C@H](C)[C@H](CC[C@@H]3C[C@@H](O)CC(=O)O3)[C@H]21` [Lovastatin, lovastatin], in assay [1], the “triglyceride vesicles accumulated on dexamethasone treatment” value is “diminished triglyceride vesicles”. Moreover, in assay [2], the “effect on bone formation in the absence of steroid treatment” value is given as “no effect on bone formation” and the “inhibition of the bone resorption resulting from steroid administration” value is recorded as “able to inhibit the bone resorption”. Further, the “increase in trabecular bone volume in the proximal tibia” value in assay [3] (7 mg/kg/day oral, 35 days, histomorphometric analysis by two individuals (p<0.001; p=0.0503)) is 110% and 25%. Also, in assay [3] (7 mg/kg/day oral, 35 days, not significant), the “increase in trabecular bone volume in the distal femur” value worked out at 23%. For the same compound, in assay [3] (7 mg/kg/day oral, 35 days, p=0.052), the “increase in bone formation rate in the distal femur” value is 40%. In assay [3] (setting [7]), the “increase in cortical thickness (pQCT)” value came to 14% and the “increase in trabecular density (pQCT)” value came to 20%. Besides, in assay [3] (second study, 1 mg/kg/day oral, 35 days), the “increase in mineral apposition rate in the proximal tibia” value stood at 22%. In addition, the “increase in bone formation rate in the proximal tibia” value in assay [3] (second study, 1 mg/kg/day oral, 35 days, p<0.008) amounted to 37%. In addition, the “increase in bone formation rate in the proximal tibia” value in assay [3] (second study, 10 mg/kg/day oral, 35 days, p=0.004) came out at 74%. For the same compound, in assay [3] (second study, 10 mg/kg/day oral, 35 days, two individuals (not significant; p<0.02), 10 mg/kg/day), the “increase in trabecular bone volume in the proximal tibia” value was 38% and 90%. The “bone loss in the femoral head as a result of dexamethasone treatment” value in assay [4] is reported as “improved”. The “dose-dependent stimulatory effect in control assays” value in assay [5] is “not in control assays”.

Regarding `CCC(C)(C)C(=O)O[C@H]1C[C@@H](C)C=C2C=C[C@H](C)[C@H](CC[C@@H]3C[C@@H](O)CC(=O)O3)[C@H]21` [Simvastatin, simvastatin], the “increase in the bone formation rate in the proximal tibia” value in assay [6] (10 mg/kg/day oral) is 114%; in assay [6] (50 mg/kg/day oral), 86%.

The record behind these values is US6642216B2, “Isoprenoid pathway inhibitors for stimulating bone growth” (ZymoGenetics Corporation, priority 1996, dated 2003).
